Measured values taken from publication PMC3445516 (PLoS ONE, 2012).
Like-named read-outs stand apart in the source and are kept apart here.

How the values were obtained:
PKD1 [1] = test system: PKD1; parameters: method as in PMID 18829454, PMID 22267986, PMID 21617763, PMID 20444281, PMID 21998636; settings: cited from earlier work; for IC50: previous HTS assays; for inhibition of PKD1 in vitro: previous work
[2] = test system: PKD1 in LNCaP prostate cancer cells; parameters: method as in PMID 18829454, PMID 22267986, PMID 21617763, PMID 20444281, PMID 21998636; settings: cited from earlier work
[3] = target: T1, recombinant GST-tagged human protein kinase D1 (PKD1) (Homo sapiens, UniProt Q15139); test: In vitro radiometric PKD1 kinase assay; format: biochemical; settings: for inhibition at 1 µM: read-out: Inhibition of PKD1
T1 construct: purchased Enzo Life sciences (Farmingdale, NY)
T1 sequence (Q15139 1-912): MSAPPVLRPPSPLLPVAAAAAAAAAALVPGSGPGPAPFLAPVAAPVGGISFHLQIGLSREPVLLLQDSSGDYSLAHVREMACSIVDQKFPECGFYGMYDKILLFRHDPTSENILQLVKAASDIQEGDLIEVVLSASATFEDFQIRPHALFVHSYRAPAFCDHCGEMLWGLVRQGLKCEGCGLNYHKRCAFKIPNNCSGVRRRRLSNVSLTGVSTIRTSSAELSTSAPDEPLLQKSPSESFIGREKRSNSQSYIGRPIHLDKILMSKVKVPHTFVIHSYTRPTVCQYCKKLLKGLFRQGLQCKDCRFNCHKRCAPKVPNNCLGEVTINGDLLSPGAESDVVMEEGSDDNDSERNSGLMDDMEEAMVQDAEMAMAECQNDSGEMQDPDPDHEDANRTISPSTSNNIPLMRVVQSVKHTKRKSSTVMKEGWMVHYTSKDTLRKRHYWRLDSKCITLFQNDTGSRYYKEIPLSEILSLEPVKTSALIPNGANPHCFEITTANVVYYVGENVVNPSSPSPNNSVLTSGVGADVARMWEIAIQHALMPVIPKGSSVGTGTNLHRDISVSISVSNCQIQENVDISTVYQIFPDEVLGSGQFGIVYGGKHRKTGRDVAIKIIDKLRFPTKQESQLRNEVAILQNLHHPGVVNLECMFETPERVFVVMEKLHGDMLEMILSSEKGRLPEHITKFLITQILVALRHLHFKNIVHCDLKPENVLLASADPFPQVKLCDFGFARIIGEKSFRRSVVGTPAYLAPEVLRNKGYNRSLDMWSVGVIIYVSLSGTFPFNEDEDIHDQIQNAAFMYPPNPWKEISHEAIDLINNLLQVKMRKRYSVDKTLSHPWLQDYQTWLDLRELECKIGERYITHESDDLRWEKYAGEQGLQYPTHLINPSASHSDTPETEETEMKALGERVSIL
Experimental: All compounds were given distinct UPCMLD (University of Pittsburgh Center for Chemical Methodologies and Library Development) IDs and were then assigned numerical IDs for convenient data display. Evaluation of each compound was carried out in triplicate at a single concentration (1 µM). Our previously described PKD1 inhibitor, kb-NB142-70, and DMSO (solvent alone) were used as positive and negative controls, respectively. Percent residual kinase activity was calculated based on that of the negative control (DMSO).
Kinase active recombinant GST-tagged human protein kinase D1 (PKD1) was obtained from Enzo Life sciences (Farmingdale, NY). DMSO was purchased from Sigma. Recombinant PKCα, PKCδ and CAMKIIα were obtained from SignalChem (Richmond, BC, Canada). ATP was purchased from Fisher Scientific. HDAC5 substrate peptide was synthesized by Biobasic Canada Inc. (Markham, ON). Myelin basic protein 4–14 was purchased from AnaSpec Inc. (Fremont, CA). The targeted kinase inhibitor library was obtained from Hoffmann-La Roche, Inc.
1.2 µg of HDAC-5 was used as substrate in the reaction. Phosphorylation of HDAC5 was detected in a kinase reaction having 1 µCi [γ-^32P] […] The reaction was incubated at 30° for 10 minutes and 25 µL of the reaction was spotted on Whatman P81 filter paper. The filter paper was washed 3 times in 0.5% phosphoric acid, air dried and counted using Beckman LS6500 multipurpose scintillation counter. Percent PKD1 inhibition was graphed using GraphPad Prism software 5.0.

p38δ = p38δ (Homo sapiens, UniProt O15264); test: In vitro radiometric p38 kinase assay; format: biochemical
p38δ, sequence (O15264 whole entry): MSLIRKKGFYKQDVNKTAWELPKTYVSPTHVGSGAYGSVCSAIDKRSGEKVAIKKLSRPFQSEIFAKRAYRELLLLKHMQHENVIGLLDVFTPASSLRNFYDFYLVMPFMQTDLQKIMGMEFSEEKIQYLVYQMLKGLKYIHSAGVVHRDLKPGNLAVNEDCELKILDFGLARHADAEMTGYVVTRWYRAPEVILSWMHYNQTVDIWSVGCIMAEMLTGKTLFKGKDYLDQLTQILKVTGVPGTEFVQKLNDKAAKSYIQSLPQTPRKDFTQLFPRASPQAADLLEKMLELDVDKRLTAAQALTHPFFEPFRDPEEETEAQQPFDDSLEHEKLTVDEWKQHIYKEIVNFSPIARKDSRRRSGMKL
Experimental: To confirm that p38 was indeed a target of the 4-azaindole, the inhibition of p38 by the twenty-eight PKD1 inhibitors was evaluated using an in vitro radiometric p38 kinase assay. […] Taken together, our data has identified a novel PKD1 inhibitor scaffold that is active for p38α, but not for PKC, CAMK and p38δ.
Phosphorylation of 3.5 µg of p38 substrate was detected in a reaction having 1 µCi [γ-^32P] ATP (Perkin Elmer Life Sciences), 50 µM ATP, 50 ng active recombinant p38 in 50 µL kinase buffer containing 25 mM Tris-HCl, pH 7.5, 10 mM MgCl2, 5 mM β-glycerophosphate, 0.1 mM Na3VO4 and 2 mM DTT. The reaction was incubated at 30°C for 10 minutes and 25 µL of the reaction was spotted on Whatman P81 filter paper. The filter paper was washed 3 times in 0.5% phosphoric acid, air dried and counted using Beckman LS6500 multipurpose scintillation counter. Percent p38 inhibition was graphed using GraphPad Prism software 5.0.

PKCδ = PKCδ (Homo sapiens, UniProt Q05655); test: In vitro radiometric PKC kinase assay; format: biochemical; parameters: purchased SignalChem (Richmond, BC, Canada); settings: read-out: inhibition of PKCδ
PKCδ, sequence (Q05655 whole entry): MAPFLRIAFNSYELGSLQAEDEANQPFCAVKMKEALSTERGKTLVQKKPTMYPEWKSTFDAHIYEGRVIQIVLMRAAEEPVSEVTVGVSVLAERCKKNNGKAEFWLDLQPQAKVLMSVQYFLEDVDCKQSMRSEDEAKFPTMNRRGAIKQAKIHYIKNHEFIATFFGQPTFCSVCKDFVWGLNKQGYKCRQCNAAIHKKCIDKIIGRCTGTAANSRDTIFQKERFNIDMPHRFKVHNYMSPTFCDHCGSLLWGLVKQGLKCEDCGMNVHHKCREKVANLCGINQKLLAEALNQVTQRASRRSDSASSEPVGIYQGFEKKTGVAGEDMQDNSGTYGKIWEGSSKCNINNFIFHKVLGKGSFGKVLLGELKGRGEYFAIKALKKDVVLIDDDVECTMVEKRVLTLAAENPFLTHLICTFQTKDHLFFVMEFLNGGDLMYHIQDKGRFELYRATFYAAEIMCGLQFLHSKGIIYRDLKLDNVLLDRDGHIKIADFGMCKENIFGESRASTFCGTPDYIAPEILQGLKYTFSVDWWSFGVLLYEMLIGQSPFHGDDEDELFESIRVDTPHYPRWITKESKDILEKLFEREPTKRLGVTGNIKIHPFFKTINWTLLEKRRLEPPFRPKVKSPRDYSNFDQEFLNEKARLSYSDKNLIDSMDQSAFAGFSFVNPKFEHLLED
Experimental: In this study, we counter-screened the twenty-eight PKD1 inhibitory agents for inhibition of PKCα, PKCδ and CAMKIIα in order to get an initial profile for the potential PKD selectivity, since these are the functionally most closely related kinases. The compounds were examined at 0.1, 1 and 10 µM concentration. […] Next, the inhibitory activity for CAMKIIα was examined.
The PKC kinase assay was carried out by co-incubating 1 µCi [γ-^32P]ATP, 20 µM ATP, 50 ng of purified PKCα or PKCδ and 5 µg of myelin basic protein 4–14, 0.25 mg/mL bovine serum albumin, 0.1 mg/mL phosphatidylcholine/phosphatidylserine (80/20%) (1 µM), 1 µM phorbol dibutyrate in 50 µL of kinase buffer containing 50 mM Tris-HCl, pH 7.5, 4 mM MgCl2 and 10 mM β-mercaptoethanol. For the CAMK assay, 50 ng of CAMK and 2 µg Syntide-2 substrate in 50 µL kinase buffer were incubated with 0.1 mM MgCl2, 1 µCi of [γ-^32P] ATP, 70 µM ATP. 0.5 mM CaCl2 and 30 ng/µL calmodulin were preincubated for 15 min on ice and then added in the kinase reaction. The reactions were incubated at 30°C for 10 minutes and 25 µL of the reaction was spotted on Whatman P81 filter paper. The filter paper was washed 3 times in 0.5% phosphoric acid, air dried and counted using Beckman LS6500 multipurpose scintillation counter.

[4] = target: T2, endogenous PKD1 in LNCaP prostate cancer cells (Homo sapiens, UniProt Q15139); test: PMA-induced activation of PKD1 in LNCaP cells (immunoblot pS916 / pS744/748); format: cell-based; settings: PMA 10 nM
T2 construct: endogenous in cells; host or cells: LNCaP prostate cancer cells
T2 sequence (Q15139 1-912): T1 sequence (Q15139 1-912)
Experimental: (§1) PMA induces PKC-dependent phosphorylation of Ser744/748 (S^744/748) in the activation loop followed by autophosphorylation of PKD1 on Ser916 (S^916) in the C-terminus, [31]. The catalytic activity of PKD1 correlates well with the level of phosphorylation at S^916 [31].
(§2) Figure 5 In vitro IC50, cellular activity, and mode of action of representative compounds. […] IC50 values were calculated based on the dose-response curve. Data are represented as mean ± SEM of 3 independent experiments. […] Cell lysates were subjected to immunoblotting for pS^916-PKD1 and pS^744/748-PKD1. Tubulin was blotted as loading control. The experiments were repeated three times and representative blots are shown. C.

PKD1 [5] = target: T3, PKD1 (Homo sapiens, UniProt Q15139); test: Kinetic analysis, Lineweaver-Burk plots (ATP competition); format: biochemical
T3 construct: purchased Enzo Life sciences (Farmingdale, NY)
Experimental: as §1, §2

[6] = 1 µM, triplicate determinations

O=C1NCCCc2c1oc1ccc(O)cc21 [CID755673]
IC50 (PKD1 [1]): 182 nM
inhibition of PKD1 in vitro (PKD1 [1]): low nanomolar range
suppression of PKD1 autophosphorylation at Ser916 [2]: low micromolar range

CCN1/C(=C/C(C)=O)Sc2ccc(OC)cc21 [CID1893668]
IC50 (PKD1 [1]): 1700 nM
inhibition of phorbol ester-induced endogenous PKD1 activation [2]: in a concentration-dependent manner

O=C(Nc1ccc(CN2CCOCC2)cc1)c1ccc(-c2cccc(Cl)c2)o1 [CID2011756]
IC50 (PKD1 [1]): 3200 nM
inhibition of phorbol ester-induced endogenous PKD1 activation [2]: in a concentration-dependent manner

Cc1cc(NCCCN)nc(-c2ccccc2O)n1 [CID5389142]
IC50 (PKD1 [1]): 1500 nM
inhibition of phorbol ester-induced endogenous PKD1 activation [2]: in a concentration-dependent manner

O=C1Nc2ccc(F)cc2/C1=C/c1ccc[nH]1 [Compound 4]
inhibition at 1 µM [3, 6]: 57%

COc1cc[nH]c1/C=C1\C(=O)Nc2ccccc21 [Compound 5]
inhibition at 1 µM [3, 6]: 55%

CNCC#Cc1c(F)ccc2c1/C(=C/c1[nH]ccc1OC)C(=O)N2 [Compound 11]
inhibition at 1 µM [3]: 94%

COc1cc[nH]c1/C=C1\C(=O)Nc2ccc(F)c(C#CC3(O)CCOCC3)c21 [Compound 13]
inhibition at 1 µM [3, 6]: 80%

COc1cc[nH]c1/C=C1\C(=O)Nc2ccc(F)c(C#CC3(O)CCNCC3)c21 [Compound 15]
inhibition at 1 µM [3, 6]: 97%
inhibition at 1 µM (p38δ): ≥ 50%

CN[C@H](C#Cc1c(F)ccc2c1/C(=C/c1[nH]ccc1OC)C(=O)N2)CO [Compound 16]
inhibition at 1 µM [3, 6]: 95%

COc1cc[nH]c1C=C1C(=O)Nc2ccc(F)c(C#CC(O)C(N)C(C)O)c21 (centres unmarked) [Compound 17]
inhibition at 1 µM [3, 6]: 97%

Cn1cc(C2=C(c3cccc4ccccc34)C(=O)NC2=O)c2ccccc21 [Compound 25]
inhibition at 1 µM [3, 6]: 54%

CSc1c(C2=C(c3cn(C)c4ccccc34)C(=O)NC2=O)c2ccccc2n1C [Compound 30]
inhibition at 1 µM [3, 6]: 65%

Cn1cc(C2=C(c3cn(CCCO)c4ccccc34)C(=O)NC2=O)c2ccccc21 [Compound 34]
inhibition at 1 µM [3, 6]: 65%

COc1ccc(O)c(C(=O)c2ccc(C(=O)O[C@@H]3CCCNC[C@H]3NC(=O)c3ccncc3)cc2)c1F [Compound 100]
inhibition at 1 µM [3]: 77%

O=C1Nc2ccc(F)c3c(OCCO)cc(-c4ccc[nH]4)c1c23 [Compound 101]
inhibition at 1 µM [3]: 86%
inhibition at 10 µM (PKCδ): ~50%

COc1cc[nH]c1/C=C1\C(=O)Nc2ccc([N+](=O)[O-])c(N3CC[C@@H](O)C3)c21 [Compound 102]
inhibition at 1 µM [3, 6]: 93%

COc1cccc(C(=O)c2sc(Nc3ccc(N4CCN(C(C)C)CC4)cc3)nc2N)c1 [Compound 104]
inhibition at 1 µM [3]: 65%
inhibition at 10 µM (PKCδ): ~50%

Fc1ccc(-c2c(-c3ccncc3)[nH]c3cccnc23)cc1 [Compound 116]
inhibition at 1 µM [3]: 86%
inhibition at 10 µM (PKCδ): ~70%

Cn1c(-c2ccncc2)c(-c2ccc(F)cc2)c2ncccc21 [Compound 121]
inhibition at 1 µM [3]: 55%

OCCn1c(-c2ccncc2)c(-c2ccc(F)cc2)c2ncccc21 [Compound 123]
inhibition at 1 µM [3, 6]: 58%

Cc1cc(C)c2c(n1)sc1c(N)ncnc12 [Compound 172]
inhibition at 1 µM [3, 6]: 62%
inhibition at 10 µM (PKCδ; 10 µM): ~50%

COc1ccc(O)c(C(=O)c2ccc(C(=O)N[C@@H]3CCCNC[C@H]3NC(=O)c3ccncc3)cc2)c1F [Compound 175]
inhibition at 1 µM [3]: 78%

O=C1N=C(NCc2ccccc2)S/C1=C\c1ccc2ncccc2c1 [Compound 178]
inhibition at 1 µM [3, 6]: 55%
inhibition at 10 µM (PKCδ; 10 µM): ~50%

O=C1N=C(N[C@H](CO)Cc2ccccc2)S/C1=C\c1ccc2ncccc2c1 [Compound 190]
inhibition at 1 µM [3, 6]: 49%
inhibition at 10 µM (PKCδ; 10 µM): ~70%

O=C1N=C(N[C@@H](CO)Cc2ccccc2)S/C1=C\c1ccc2ncccc2c1 [Compound 198]
inhibition at 1 µM [3, 6]: 62%
inhibition at 1 µM (p38δ): ≥ 50%
inhibition at 10 µM (PKCδ; 10 µM): ~70%

O=C1N=C(N[C@H](CO)c2ccccc2)S/C1=C\c1ccc2ncccc2c1 [Compound 203]
inhibition at 1 µM [3, 6]: 85%

NC1=NC(=O)/C(=C/c2ccc3ncccc3c2)S1 [Compound 205]
inhibition at 1 µM [3, 6]: 82%

CNC1=NC(=O)/C(=C/c2ccc3ncccc3c2)S1 [Compound 209]
inhibition at 1 µM [3, 6]: 64%
IC50 ([3]; dose-response, mean ± SEM of 3 independent experiments): 562 nM
effect on PKC-induced transphosphorylation at S744/748 [4]: did not affect
IC50 ([4]; densitometry of pS916-PKD1 levels, read-out: cellular IC50 for inhibition of PKD1): 18200 nM
mode of inhibition with respect to ATP (PKD1 [5]): competitive with respect to ATP

O=C1NCCSc2c1sc1ccc(O)cc21 [kb-NB142-70]
IC50 (PKD1 [1]): 28.3 nM
inhibition of PKD1 in vitro (PKD1 [1]): low nanomolar range
suppression of PKD1 autophosphorylation at Ser916 [2]: low micromolar range
